# Changes are numbered by the printed parent chain. “Also recorded” adds a separate entry of the source. Square brackets hold non-standard residues; d marks the D form. Ends that are not written are not given here. pY = N[C@@H](Cc1ccc(OP(=O)(O)O)cc1)C(=O)O
# What was measured:
# [1] = target: T1, GST-GluA2-STEP32 C/S complex (Homo sapiens, UniProt P54829, C496S); assay: GST-GluA2-STEP32 pulldown (SDS-PAGE / western blot); format: binding
# T1 construct: made in house; host or cells: STEP32 C/S: E. coli BL21(DE3); GST-GluA2: E. coli BL21
# T1 sequence (P54829 282-563 C496S): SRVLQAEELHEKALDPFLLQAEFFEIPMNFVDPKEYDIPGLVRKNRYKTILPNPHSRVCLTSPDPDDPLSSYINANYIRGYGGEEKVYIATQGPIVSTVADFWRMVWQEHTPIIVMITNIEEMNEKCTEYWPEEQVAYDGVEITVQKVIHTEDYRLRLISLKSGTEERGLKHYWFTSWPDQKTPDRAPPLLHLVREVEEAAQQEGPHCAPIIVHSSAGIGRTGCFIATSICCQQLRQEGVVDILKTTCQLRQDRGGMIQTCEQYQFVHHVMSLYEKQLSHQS
# Procedure: Prior to binding and after contacting the beads with phosphorylated GST-GluA2, the beads were washed thoroughly with interaction buffer (25 mM HEPES, 150 mM NaCl, 1 mM MgCl2, 1% Triton™ X-100, 1 mM DTT, pH=7,5). Triton™ X-100 was used to avoid nonspecific binding and to minimize the risk of precipitation for any of the proteins. […] Beads were washed twice with wash buffer to remove excess STEP32 C/S. Results were analyzed using SDS-PAGE (FIG. 2A).
# [2] = system: scopolamine (0.7 mg/kg)-treated rats; assay: Elevated plus-maze test; settings: for number of entries in the open arms vs. Sco-alone treated rats / percentage of the open arms time vs. scopolamine-alone treated rats: peptide 15 μM, Sco 0.7 mg/kg
# Procedure: At the beginning of the experiment, there have been selected 30 adult male rats (Cantacuzino Institute™, Romania) having an average weight of 350 g (±10 g) and four months old. The animals were housed in the animal unit under controlled conditions of light (a 12-h cycle starting at 07:00 h) and temperature (22° C.). Food and water were provided ad libitum throughout the experiment. […] Scopolamine hydrobromide (Sco, 0.7 mg/kg) was administered 30 min before behavioral in vivo approaches.
# (§1) All surgical procedures were conducted under aseptic conditions, under sodium pentobarbital (50 mg/kg b.w., i.p., Sigma-Aldrich™, Darmstadt, Germany) anesthesia. Rats were mounted in the stereotaxic apparatus with the nose oriented 11° below horizontal zero plane. Two plastic guide cannulas (Portex™, 0.9 mm outer diameter) were bilaterally implanted stereotaxically in the dorsal hippocampus according to the following coordinates: A/P=3.6 mm, M/L=3.1 mm and D/V=2.4 mm. The cannulas were positioned with dental cement (Adhesor™ SpofaDental™) and secured by three stainless steel screw implanted into the skull. After surgery, the rats were isolated in separate cages and protected with a large spectrum antibiotic. Animals were given two weeks to recover from surgery and were handled daily during this period.
# Behavior in the elevated plus-maze test (E.P.M.) is utilized to assess exploration, anxiety and motor behavior. Each rat was placed in the center of the maze facing one closed arm. […] The percentages of time spent in the open arms were calculated using the formula:
# (time spent in the open arms/time spent in all arms)×100. • Forced Swimming Test
# [3] = system: scopolamine (0.7 mg/kg)-treated rats; assay: Y-maze test, scopolamine-induced cognitive impairment; settings: peptide 15 μM; Sco 0.7 mg/kg
# Procedure: (§2) At the beginning of the experiment, there have been selected 30 adult male rats (Cantacuzino Institute™, Romania) having an average weight of 350 g (±10 g) and four months old. The animals were housed in the animal unit under controlled conditions of light (a 12-h cycle starting at 07:00 h) and temperature (22° C.). Food and water were provided ad libitum throughout the experiment. Rats were randomly divided into 6 groups (n=5 animals/group) as follows: Control group (sham-operated), Scopolamine (Sco) group (sham-operated, Sco: 0,7 mg/kg b.w., i.p., Sigma-Aldrich™, Darmstadt, Germany), and groups treated with TAT-p3Y, TAT-3Y, TAT-p3Ysh3, and TAT-pfin4 (15pIVI, GenScript™) received scopolamine. […] Scopolamine hydrobromide (Sco, 0.7 mg/kg) was administered 30 min before behavioral in vivo approaches.
# as §1
# Spontaneous alternation behavior was evaluated in a single-session Y-maze, as previously described by Jackson Postu et al [63]. In the present study, the Y-maze used was built of Plexiglas having the following dimensions: 25 cm high, 35 cm long, 10 cm wide for each arm, and a central area in an equilateral triangular shape. […] The percentage of the involuntary alternation was determined according to the formula:
# [4] = system: scopolamine (0.7 mg/kg)-treated rats; assay: Radial arm-maze test, scopolamine-induced cognitive impairment; settings: for number of working memory errors vs. scopolamine-alone treated rats: peptide 15 μM into dorsal hippocampus; for number of working memory errors vs. scopolamine-alone treated rats / number of reference memory errors vs. scopolamine-alone treated rats: Sco 0.7 mg/kg; for number of reference memory errors vs. scopolamine-alone treated rats: peptide 15 μM
# Procedure: as §2, §1
# As described before by Olton and Samuelson and Postu et al [63], using a radial arm maze test (RAM), the spatial memory was determined for one week.
# The maze comprised eight arms marked from 1 to 8 (48 cm×12 cm), with a radial extension of 32 cm in diameter from the central area, and it had 50 mg food pellets at the end of arms 1, 2, 4, 5, and 7. Four days of habituation sessions were performed. Rats were instructed to move to the end of the arms and to eat the bait during 5 min sessions. After habituation, only one trial per day was granted to all rats. For working and reference memory tasks, each rat was individually placed in the center of the maze.
# [5] = system: scopolamine (0.7 mg/kg)-treated rats; assay: Forced swimming test
# Procedure: At the beginning of the experiment, there have been selected 30 adult male rats (Cantacuzino Institute™, Romania) having an average weight of 350 g (±10 g) and four months old. The animals were housed in the animal unit under controlled conditions of light (a 12-h cycle starting at 07:00 h) and temperature (22° C.). Food and water were provided ad libitum throughout the experiment. Rats were randomly divided into 6 groups (n=5 animals/group) as follows: Control group (sham-operated), Scopolamine (Sco) group (sham-operated, Sco: 0,7 mg/kg b.w., i.p., Sigma-Aldrich™, Darmstadt, Germany), and groups treated with TAT-p3Y, TAT-3Y, TAT-p3Ysh3, and TAT-pfin4 (15pIVI, GenScript™) received scopolamine. The doses of the peptides were chosen according to a previous report [60]. Scopolamine hydrobromide (Sco, 0.7 mg/kg) was administered 30 min before behavioral in vivo approaches. […]
# The forced swimming test (F.S.T.) is used for assessing depressive-like responses [66]. The depressive-like response was assessed, basically using the same method described by Campos
# et al. [67], but with modifications. […] During the test session, the following behavioral responses were recorded: (i) immobility (time spent floating with the minimal movements to keep the head above the water); and (ii) swimming (time spent with active swimming movements). • Statistical Analyses
# STEP32 WT = target: T2, STEP32 WT (Homo sapiens, UniProt P54829); assay: In vitro dephosphorylation of pY876 of full length GluA2 by STEP32 WT (western blot)
# T2 sequence (P54829 282-563): T1 sequence (P54829 282-563 C496S) with S215C
# Source text: GluA2-FL phosphorylated at Y876 site was immunoprecipitated from HEK293T cells overexpressing GluA2 and vSrc using anti-GluA2 antibodies and then submitted to in vitro dephosphorylation by purified STEP32 WT, in presence versus absence of TAT-phosphopeptides: TAT-p3Y, TAT-p3Y-sh3 and TAT-p-fin4. The dephosphorylation of the pY876 site of GluA2 FL was detected by western blotting using anti-pY876 antibodies and anti-GluA2 antibodies.
# The results represent mean±SEM of three independent experiments.
# Therefore, HEK293 cells were transfected with a pCMV-SPORT6-GRIA2 mammalian expression vector containing the cDNA of full length GluA2 (GluA2-FL). […] A sample consisting of immunoprecipitated GluA2 FL untreated with either STEP32 or peptides was also included into the study, as a control.
# BRAG2-GluA2 complex = target: T3, BRAG2-GluA2 complex (Homo sapiens, UniProt Q6DN90, E620K); assay: BRAG2-GluA2 pulldown with GSH Sepharose-coupled GST-GluA2 (SDS-PAGE); format: binding
# T3 construct: GST-GluA2: E. coli BL21
# T3 sequence (Q6DN90 with tags, fused parts or gaps E620K): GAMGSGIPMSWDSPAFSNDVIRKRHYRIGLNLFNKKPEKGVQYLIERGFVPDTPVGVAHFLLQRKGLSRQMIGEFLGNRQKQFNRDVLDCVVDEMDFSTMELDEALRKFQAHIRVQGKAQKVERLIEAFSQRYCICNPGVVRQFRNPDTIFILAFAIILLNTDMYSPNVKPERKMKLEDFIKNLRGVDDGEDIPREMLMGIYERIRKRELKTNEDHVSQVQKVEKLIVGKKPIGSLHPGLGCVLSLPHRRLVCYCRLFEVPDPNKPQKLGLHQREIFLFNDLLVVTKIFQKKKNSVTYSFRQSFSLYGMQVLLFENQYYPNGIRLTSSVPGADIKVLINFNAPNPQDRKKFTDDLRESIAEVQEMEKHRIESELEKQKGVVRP
# Procedure: A. SDS-PAGE gel of the species pulled down with GSH Sepharose-coupled GST-GluA2. On the first lane, only BRAG2 was present in the solution containing the beads. On lanes 2-4 the BRAG2 solution also contained 1 mM of different peptides. B. BRAG2 band intensities from A. normalized to the GS T-GluA2 band intensities.
# Samples containing GST-GluA2 (150 μg) and BRAG2 (60 μg) were bound to Sepharose glutathione beads (20 μl). Prior to binding, the beads were washed thoroughly with interaction buffer (25 mM HEPES, 150 mM NaCl, 1 mM MgCl2, 1% Triton™ X-100, 1 mM DTT, pH=7.5). Triton™ X-100 was used to avoid nonspecific binding and to minimize the risk of protein precipitation. In a subsequent step, 3Y at different concentrations was added to the samples (1000 μM, 100 μM, 10 μM, 1 μM, 0.1 μM). A 2.5 mM solution (0.1 M PBS pH=7.4) was obtained. After incubating the samples for 90 minutes at 4 ° C. with stirring, the beads were washed with a buffer containing less Triton X-100 (25 mM HEPES, 150 mM NaCl, 1 mM MgCl2, 0.1% Triton™ X-100.1 mM DTT, pH=7.5). The species which remained trapped by the beads were analyzed by SDS-PAGE (FIG. 16).
Substance,inhibition of formation of the GST-GluA2-STEP32 C/S complex [1],number of entries in the open arms vs. Sco-alone treated rats [2],percentage of the open arms time vs. scopolamine-alone treated rats [2],spontaneous alternation percentage / working memory vs. scopolamine alone [3],number of working memory errors vs. scopolamine-alone treated rats [4],number of reference memory errors vs. scopolamine-alone treated rats [4],other results
(TAT-)p3Y-sh3: p3Ysh-3 (EGYNVpY) N-terminally fused to the TAT cell-penetrating sequence (GRKKRRQRRRPQEGYNV[pY]),significantly inhibit the interaction,high number of entries in the open arms,high percentage of the open arms time,successfully countered the effect of scopolamine on working-memory,significant reduction in the number of working memory errors,significant reduction in the number of reference memory errors,
(TAT-)p3Y: p3Y N-terminally fused to the TAT cell-penetrating sequence GRKKRRQRRRPQ [reference compound],significantly inhibit the interaction,,,successfully countered the effect of scopolamine on working-memory,significant reduction in the number of working memory errors,,"p, Sco vs. peptide, immobility time ([5]; 15 μM, Tukey's post hoc, n=5, FIG. 12): < 0.0001; immobility time ([5]; peptide 15 μM, Sco 0.7 mg/kg): significant decline of the immobility time; p, Sco vs. peptide, number of reference memory errors ([4]; 15 μM, Tukey's post hoc, n=5, FIG. 10): < 0.01"
(TAT-)p-fin 4: p-fin4 (EGYNVpYE) N-terminally fused to the TAT cell-penetrating sequence (GRKKRRQRRRPQEGYNV[pY]E),strongest inhibitory effect; also recorded: significantly inhibit the interaction,high number of entries in the open arms,high percentage of the open arms time,successfully countered the effect of scopolamine on working-memory,significant reduction in the number of working memory errors,significant reduction in the number of reference memory errors,"inhibition of pY876 GluA2-FL dephosphorylation by STEP32 WT (STEP32 WT; 0.1 mM and 1 mM peptide): highest inhibition of GluA2 dephosphorylation; P, no peptide sample vs. peptide + STEP32 WT sample, pY876 band intensity (STEP32 WT; 1 mM peptide, unpaired t-test with Welch's correction): < 0.05"
"ATYKEGYNVYG (not fully specified (residue 10)) [3Y, reference compound]",,,,,,,"disruption of the BRAG2-GluA2 complex (BRAG2-GluA2 complex; 3Y in the range of concentrations 10 μM-1 mM): successfully disrupts the BRAG2-GluA2 complex; p, Sco vs. peptide, open arms time % ([2]; 15 μM, Tukey's post hoc, n=5, FIG. 13): < 0.001"
"EGYNVY (Interference peptide capable of inhibiting the formation/disrupting the STEP-GluA2 complex or the GluA2-BRAG2 complex) [3Y-sh3, (uncoupled) novel 3Y-sh3 peptide, non-phosphorylated hexapeptide]",,,,,,,effect on the GST-GluA2-BRAG2 complex (BRAG2-GluA2 complex; 1 mM peptide (FIG. 17)): significant disrupting effect

# From patent publication US20240067677A1, “Interference Peptides As Inhibitors Of Interactions Related To Ampar Endocytosis” (priority 2020, published 2024)
